Data taken from publication PMC8580066 (2021).

How the values were obtained:
[1] = system: c-Myc (DNA, G4) TGAGGGTGGGTAGGGTGGGTAA; assay: fluorescence titration, simple binding model; conditions: K+ 100 mM, 10 mM lithium cacodylate, pH 7.3, stoichiometry fixed, equivalent stereoisomers, per site
[2] = system: c-Myc (DNA, G4) TGAGGGTGGGTAGGGTGGGTAA; assay: thiazole orange displacement (TO-FID); conditions: K+ 100 mM; 10 mM Tris-HCl, pH 7.3; thiazole orange 2 μM displaced; DNA 1 μM; helicene 0-20 μM
[3] = system: BCL2 (BCL2Mid) (DNA, G4) GGGCGCGGGAGGAATTGGGCGGG; assay: fluorescence titration, competitive binding model; conditions: K+ 100 mM, 10 mM lithium cacodylate, pH 7.3, 32% and 96% ee samples, helicene 6 μM, per site
[4] = system: c-Myc (DNA, G4) TGAGGGTGGGTAGGGTGGGTAA; assay: fluorescence titration, competitive binding model; conditions: K+ 100 mM, 10 mM lithium cacodylate, pH 7.3, 32% and 96% ee samples, helicene 6 μM, per site
[5] = system: HTG4 (DNA, G4) AGGGTTAGGGTTAGGGTTAGGG; assay: fluorescence titration, competitive binding model; conditions: K+ 100 mM, 10 mM lithium cacodylate, pH 7.3, 32% and 96% ee samples, helicene 6 μM, per site

| SMILES | Kd [1] | DC50 [2] | Kd ([1]; helicene 4 μM constant) | Kd ([3]; KM from simultaneous fit of 0%) | Kd ([3]; KP from simultaneous fit of 0%) | Kd ([4]; KM from simultaneous fit of 0%) | Kd ([4]; KP from simultaneous fit of 0%) | Kd ([5]; KM from simultaneous fit of 0%) | Kd ([5]; KP from simultaneous fit of 0%) |
| --- | --- | --- | --- | --- | --- | --- | --- | --- | --- |
| c1ccc2c3c(ccc2c1)N(CCN1CCOCC1)c1cccc2c1c-3c1c3ccccc3ccc1[n+]2CCN1CCOCC1 | 3.8 µM | 6.0 µM |  |  |  |  |  |  |  |
| CCCN1c2ccc3ccccc3c2-c2c3c1cccc3[n+](CCC)c1ccc3ccccc3c21 |  | 3.8 µM | 0.7 µM |  |  |  |  |  |  |
| OCCN1c2ccc3ccccc3c2-c2c3c1cccc3[n+](CCO)c1ccc3ccccc3c21 | 4.7 µM | 4.4 µM |  | 5.1 µM | 7.5 µM | 3.8 µM | 4.7 µM | 6.2 µM | 7.5 µM |
